{
  "source": "patent US20250344731A1",
  "about": "“SALTY TASTE/UMAMI ENHANCER” (AJINOMOTO CO., INC., priority 2023, published 2025)",
  "key": {"[1]": {"experiment": "Sensory evaluation of umami enhancement function, naringenin/naringin added to sodium aspartate umami solution (Example 2)", "conditions": "30 ppm added to NC2 (Asp-Na, sodium aspartate 0.2%); for umami intensity (points): NC2 = 0.10 point; for degree of umami enhancement (times): relative to NC2", "procedure": "(§1) As shown in Table 4: Umami solution (weight g/100 g), an umami solution was prepared. Water at ordinary temperature was used for preparation. Water, naringenin (Penta manufacturing) or naringin (IKEDA CORPORATION) were weighed and added to each of the prepared umami solutions or water at various concentrations shown in Table 5: Prepared sensory evaluation samples. The umami intensity of each sample was blindly evaluated using a scoring system in 0.01 point increments, with the umami intensity of water in test plot 1 as 0 point, the umami intensity of NC in test plot 3 as 0.30 points, and the umami intensity of NC2 in test plot 4 as 0.10 point. The evaluation was performed by a trained panel of three, and the average score of each panel was used. Samples whose umami intensity was enhanced by 1.5 times or more (sodium glutamate 0.45 points or more, sodium aspartate 0.15 points or more) due to the addition were evaluated to “have an umami enhancement function”. In addition, the presence or absence, and intensity of off-taste (bitterness and harsh taste other than umami) were also evaluated. The evaluation results are shown in Table 6: Sensory evaluation (umami intensity)."}, "[2]": {"experiment": "Sensory evaluation of umami enhancement function, naringenin/naringin added to sodium glutamate umami solution or water (Example 2)", "conditions": "for umami enhancement function: addition to umami solution (sodium glutamate, sodium aspartate), 30 ppm, function = 1.5 times or more", "procedure": "as §1"}, "[3]": {"experiment": "Sensory evaluation of saltiness enhancement function, naringenin/naringin added to NaCl aqueous solution (Example 1)", "conditions": "30 ppm added to water (NaCl 0%); scale NC 0.8% NaCl = 1.00, PC 0.9% NaCl = 5.5; panel of three, average"}, "[4]": {"experiment": "Sensory evaluation of saltiness enhancement function, naringenin/naringin added to NaCl aqueous solution (Example 1)", "conditions": "for saltiness intensity: scale NC = 1.00, PC 0.9% NaCl = 5.5; for saltiness enhancement function: addition of 1 ppm or more to salt water, function = saltiness intensity 1.8 points or more", "procedure": "As shown in Table 1: NaCl aqueous solution (weight g/100 g), various NaCl aqueous solutions (saline solutions) were prepared. Filtered water at ordinary temperature was used for preparation. Water, naringenin (Penta Manufacturing), or naringin (IKEDA CORPORATION) were weighed and added to the prepared 0.8% aqueous solution at various concentrations shown in Table 2: Prepared sensory evaluation samples. The saltiness intensity of each sample was blindly evaluated using a scoring system in 0.1 point increments, with the saltiness intensity of NC in test plot 1 as 1.00 point and the saltiness intensity of PC in test plot 2 as 5.5 points. The evaluation was performed by a trained panel of three, and the average score of each panel was used. Samples with a saltiness intensity of 1.8 points or more (NaCl 0.84% or more) due to the addition were evaluated to “have a saltiness enhancement function”. In addition, the presence or absence, and intensity of off-taste (bitterness and harsh taste other than saltiness) were also evaluated. The evaluation results are shown in Table 3: Sensory evaluation (saltiness intensity)."}, "[5]": {"experiment": "Sensory evaluation of saltiness enhancement function, naringenin-related flavonoid components in NaCl aqueous solution (Example 3)", "conditions": "for saltiness intensity: 30 ppm in NC salt water (NaCl 0.8%), scale NC = 1.0, PC1 0.9% = 2.0, PC2 1.0% = 3.0, panel of three, average", "source_text": "1) The following flavonoid components were used as naringenin-related flavonoid components: • Luteolin (manufactured by Salus Nutra Inc.), pinocembrin (manufactured by Xi'an Demeter Biotech Co., Ltd.), liquiritigenin (manufactured by Xi'an Julong Import and Export Co., Ltd.), apigenin (manufactured by Xi'an Best Bio-Tech Co., Ltd.), and acacetin (manufactured by Xi'an Reain Biotechnology Co., Ltd.)\n2) The following compound was used as control component: Quercetin (manufactured by Medience Corporation) (structure shown below)\nAs shown in Table 7: NaCl aqueous solution (weight g/100 g), various NaCl aqueous solutions (saline solutions) were prepared. Water at ordinary temperature was used for preparation.\nEach naringenin-related flavonoid component dissolved in propylene glycol (SIGMA) at 10000 ppm was added to the prepared 0.8% salt water solution such that the concentration at the time of eating (corresponding to the content of the present flavonoid component or a salt thereof in the oral ingestion product at the time of oral ingestion, as a flavonoid component relative to the oral ingestion product) was 30 ppm (Table 8).\nThe saltiness intensity of each sample was blindly evaluated using a scoring system in 0.5 point increments, with the saltiness intensity of NC in test plot 1 as 1.0 point, the saltiness intensity of PC1 as 2.0 points, and the saltiness intensity of PC2 as 3.0 points. The evaluation was performed by a trained panel of three, and the average score was used. Since the saltiness intensity of 2.0 points of PC1 is evaluated to be clearly stronger in saltiness than NC, samples with a saltiness intensity of 1.5 points or more (NaCl 0.85% or more) were evaluated to have a saltiness enhancement function. In addition, the presence or absence, and intensity of off-taste (bitterness and harsh taste other than saltiness) were also evaluated. The evaluation results are shown in Table 9: Sensory evaluation (saltiness intensity)."}, "[6]": {"experiment": "Sensory evaluation of umami enhancement function, naringenin-related flavonoid components in umami solution (Example 4)", "conditions": "for degree of umami enhancement (times) / umami intensity (points): 30 ppm in NC (sodium glutamate 0.1%); for degree of umami enhancement (times): relative to NC; for umami intensity (points): scale water = 0, NC = 0.30, panel of three, average", "procedure": "• 1) The five naringenin-related flavonoid components evaluated in Example 3 were used. • 2) Quercetin was used as the control component. Umami solutions were prepared as shown in Table 10: Umami solution (weight g/100 g). Water at ordinary temperature was used for preparation. Each naringenin-related flavonoid component and the like dissolved in propylene glycol (SIGMA) at 10000 ppm was added to the prepared 0.1% umami aqueous solution such that the concentration at the time of eating was 30 ppm (Table 11). The umami intensity of each sample was blindly evaluated using a scoring system in 0.05 point increments, with the umami intensity of water in test plot 1 as 0 point and the umami intensity of NC in test plot 2 as 0.30 points. The evaluation was performed by a trained panel of three, and the average score was used. The umami enhancement function of samples whose umami intensity was enhanced by 1.5 times or more (sodium glutamate 0.45 points or more) due to the addition was evaluated to be functional. In addition, the presence or absence, and intensity of off-taste (bitterness and harsh taste other than umami) were also evaluated. The evaluation results are shown in Table 12: Sensory evaluation (umami intensity)."}, "[7]": {"conditions": "30 ppm added to NC1 (MSG, sodium glutamate 0.1%), NC1 = 0.30 points"}, "[8]": {"conditions": "30 ppm added to NC1 (MSG, sodium glutamate 0.1%), relative to NC1"}, "[9]": {"conditions": "30 ppm added to water, scale water = 0, NC1 = 0.30, NC2 = 0.10"}, "[10]": {"conditions": "1 ppm added to NC salt water (NaCl 0.8%)"}, "[11]": {"conditions": "10 ppm added to NC salt water (NaCl 0.8%)"}, "[12]": {"conditions": "30 ppm added to NC salt water (NaCl 0.8%)"}},
  "data": [
    {"smiles": "O=C1C[C@@H](c2ccc(O)cc2)Oc2cc(O)cc(O)c21", "note": "(stereo in doubt) [Naringenin, 5,7-dihydroxy-2-(4-hydroxyphenyl)chroman-4-one]", "values": [
      {"measurement": "umami intensity (points)", "setting": "[1]", "value": 0.20, "unit": "points"},
      {"measurement": "degree of umami enhancement (times)", "setting": "[1]", "value": 2.0, "unit": "times"},
      {"measurement": "umami intensity (points)", "setting": "[2]; [7]", "value": 0.47, "unit": "points"},
      {"measurement": "degree of umami enhancement (times)", "setting": "[2]; [8]", "value": 1.6, "unit": "times"},
      {"measurement": "degree of umami enhancement (times)", "setting": "[2]; 30 ppm added to water", "value": 0, "unit": "times"},
      {"measurement": "umami intensity (points)", "setting": "[2]; [9]", "value": 0.00, "unit": "points"},
      {"measurement": "umami enhancement function", "setting": "[2]", "value": "showed an umami enhancement function"},
      {"measurement": "saltiness intensity", "setting": "[3]", "value": 0, "unit": "points"},
      {"measurement": "saltiness intensity", "setting": "[4]; [10]", "value": 1.9, "unit": "points"},
      {"measurement": "saltiness intensity", "setting": "[4]; 5 ppm added to NC salt water (NaCl 0.8%)", "value": 2.4, "unit": "points"},
      {"measurement": "saltiness intensity", "setting": "[4]; [11]", "value": 3.0, "unit": "points"},
      {"measurement": "saltiness intensity", "setting": "[4]; [12]", "value": 2.9, "unit": "points"},
      {"measurement": "saltiness enhancement function", "setting": "[4]", "value": "showed a saltiness enhancement function"}
    ]},
    {"smiles": "COc1ccc(-c2cc(=O)c3c(O)cc(O)cc3o2)cc1", "note": "[Acacetin, 5,7-dihydroxy-4-methoxyflavone]", "values": [
      {"measurement": "saltiness intensity", "setting": "[5]", "value": 3.5, "unit": "points"},
      {"measurement": "degree of umami enhancement (times)", "setting": "[6]", "value": 1.67, "unit": "times"},
      {"measurement": "umami intensity (points)", "setting": "[6]", "value": 0.50, "unit": "points"}
    ]},
    {"smiles": "O=c1cc(-c2ccc(O)cc2)oc2cc(O)cc(O)c12", "note": "[Apigenin, 5,7-dihydroxy-2-(4-hydroxyphenyl)-4H-1-benzopyran-4-one]", "values": [
      {"measurement": "saltiness intensity", "setting": "[5]", "value": 3.5, "unit": "points"},
      {"measurement": "degree of umami enhancement (times)", "setting": "[6]", "value": 1.87, "unit": "times"},
      {"measurement": "umami intensity (points)", "setting": "[6]", "value": 0.56, "unit": "points"}
    ]},
    {"smiles": "O=c1c(O)c(-c2ccc(O)c(O)c2)oc2cc(O)cc(O)c12", "note": "[Quercetin, reference compound]", "values": [
      {"measurement": "saltiness intensity", "setting": "[5]", "value": 1.3, "unit": "points"},
      {"measurement": "saltiness enhancement effect", "setting": "[5]; 30 ppm in salt water (NaCl 0.8%), function = 1.5 points or more", "value": "did not show a saltiness enhancement effect"},
      {"measurement": "degree of umami enhancement (times)", "setting": "[6]", "value": 1.00, "unit": "times"},
      {"measurement": "umami intensity (points)", "setting": "[6]", "value": 0.30, "unit": "points"}
    ]},
    {"smiles": "O=c1cc(-c2ccc(O)c(O)c2)oc2cc(O)cc(O)c12", "note": "[Luteolin, 2-(3,4-dihydroxyphenyl)-5,7-dihydroxy-4-chromenone]", "values": [
      {"measurement": "saltiness intensity", "setting": "[5]", "value": 2.0, "unit": "points"},
      {"measurement": "degree of umami enhancement (times)", "setting": "[6]", "value": 1.43, "unit": "times"},
      {"measurement": "umami intensity (points)", "setting": "[6]", "value": 0.43, "unit": "points"},
      {"measurement": "umami enhancement effect", "setting": "[6]; 30 ppm in umami solution (sodium glutamate 0.1%), functional = 1.5 times or more", "value": "tendency to enhance umami"}
    ]},
    {"smiles": "C[C@@H]1O[C@@H](O[C@H]2[C@H](Oc3cc(O)c4c(c3)O[C@H](c3ccc(O)cc3)CC4=O)O[C@H](CO)[C@@H](O)[C@@H]2O)[C@H](O)[C@H](O)[C@H]1O", "note": "[Naringin, naringin, reference compound]", "values": [
      {"measurement": "umami intensity (points)", "setting": "[1]", "value": 0.12, "unit": "points"},
      {"measurement": "degree of umami enhancement (times)", "setting": "[1]", "value": 1.2, "unit": "times"},
      {"measurement": "umami intensity (points)", "setting": "[2]; [7]", "value": 0.35, "unit": "points"},
      {"measurement": "degree of umami enhancement (times)", "setting": "[2]; [8]", "value": 1.2, "unit": "times"},
      {"measurement": "degree of umami enhancement (times)", "setting": "[2]; 30 ppm added to water", "value": 0, "unit": "times"},
      {"measurement": "umami intensity (points)", "setting": "[2]; [9]", "value": 0.00, "unit": "points"},
      {"measurement": "umami enhancement function", "setting": "[2]", "value": "no enhancement of the umami intensity was observed"},
      {"measurement": "saltiness intensity", "setting": "[3]", "value": 0, "unit": "points"},
      {"measurement": "saltiness intensity", "setting": "[4]; [10]", "value": 1.8, "unit": "points"},
      {"measurement": "saltiness intensity", "setting": "[4]; [11]", "value": 2.1, "unit": "points"},
      {"measurement": "saltiness intensity", "setting": "[4]; [12]", "value": 2.2, "unit": "points"},
      {"measurement": "saltiness enhancement function", "setting": "[4]", "value": "also showed a saltiness enhancement function"}
    ]},
    {"smiles": "O=C1CC(c2ccccc2)Oc2cc(O)cc(O)c21", "note": "(stereo not drawn) [Pinocembrin, 5,7-dihydroxy-2-phenyl-2,3-dihydro-4H-chromene-4-one]", "values": [
      {"measurement": "saltiness intensity", "setting": "[5]", "value": 2.0, "unit": "points"},
      {"measurement": "degree of umami enhancement (times)", "setting": "[6]", "value": 1.67, "unit": "times"},
      {"measurement": "umami intensity (points)", "setting": "[6]", "value": 0.50, "unit": "points"}
    ]},
    {"smiles": "O=C1C[C@@H](c2ccc(O)cc2)Oc2cc(O)ccc21", "note": "[Liquiritigenin, (2S)-4′,7-dihydroxyflavan-4-one]", "values": [
      {"measurement": "saltiness intensity", "setting": "[5]", "value": 3.5, "unit": "points"},
      {"measurement": "degree of umami enhancement (times)", "setting": "[6]", "value": 1.87, "unit": "times"},
      {"measurement": "umami intensity (points)", "setting": "[6]", "value": 0.56, "unit": "points"}
    ]}
  ]
}
